row,melting point [°C],SMILES
1,251.73,Cc1ccc2c(ccn2C)c1Nc1nccc2c1ccn2CC(=O)N(C)C [Co. No. 2]
2,221.78,COc1nccc(C)c1Nc1nccc2c1ccn2CC(=O)N(C)C [Co. No. 4]
3,215.7,CN(C)C(=O)Cn1ccc2c(Nc3c(Cl)cccc3Cl)nccc21 [Co. No. 5]
4,228.29,Cc1cc(C(F)(F)F)cc(C(C)C)c1Nc1nccc2c1ccn2CC(=O)N(C)C [Co. No. 6]
5,211.88,Cc1cncc(Cl)c1Nc1nccc2c1ccn2CC(=O)N1CCC1 [Co. No. 12]
6,214.46,Cc1cc(C(F)(F)F)cc(C)c1Nc1nccc2c1ccn2CC(=O)N(C)C [Co. No. 18]
7,187.16,Cc1cccc(C(F)(F)F)c1Nc1nccc2c1ccn2CC(=O)N(C)C [Co. No. 21]
8,211.1,Cc1cccc(Cl)c1Nc1nccc2c1ccn2CC(=O)N(C)C [Co. No. 22]
9,202.75,CN(C)C(=O)Cn1ccc2c(Nc3c(F)cccc3Cl)nccc21 [Co. No. 23]
10,200.76,CN(C)C(=O)Cn1ccc2c(Nc3c(Cl)cccc3OC(F)(F)F)nccc21 [Co. No. 24]
11,69.34,CC(C)c1cc(OC(F)(F)F)cc(Cl)c1Nc1nccc2c1ccn2CC(=O)N(C)C [Co. No. 27]

# Reference: patent US20210130352A1, “OGA INHIBITOR COMPOUNDS” (Janssen Pharmaceutica NV, priority 2018, published 2021)
